# Experimental data as given in US20150320709A1, “METHODS AND COMPOSITIONS FOR FACILITATING WEIGHT LOSS BY ADMINISTRATION OF THYROID HORMONES” (priority 2011, published 2015).
# Legend:
# Format in all cases: in vivo, human
# [1] = Body weight of weight loss program patients on thyroid hormone treatment
# Procedure: The first patient example is a person, 5′2″, weight 268 lbs, body mass index (BMI) 49 (nl 19-24; overweight 25-29; obesity≧30). Baseline blood pressure was 110/74, blood sugar (BS) was 153 mg/dL 10 days after their first visit. Their medical problems at baseline included obesity, type 2 diabetes mellitus (DM2), high blood pressure (HTN), fatigue, depression, and asthma. Their medications included glipizide 10 mg daily, amitriptyline 50 mg daily, metoprolol 50 mg daily, furosemide 40 mg daily, potassium chloride, lisinopril 10 mg daily, Advair Discus 500/50 twice daily (bid), and montelukast 10 mg daily. They were started on our comprehensive program. Five months after starting their weight loss treatment, they developed symptoms of hypothyroidism with constipation and fatigue. They had lost 28 lbs by this time and was having difficulty losing more weight even though they were eating less than they were before their weight loss treatment began. At the start of treatment, their FT4 was 0.9 ng/dL (nl 0.7-1.48). At the time of their low thyroid symptoms, their FT3 was 2.9 pg/mL (nl 1.71-3.71) and their FT4 was 0.91 ng/dL (nl 0.7-1.48). They were then treated with thyroid hormone (desiccated thyroid with a ratio of T4:T3 of about 4:1) at 60 mg daily for 6 days to acclimate, then increased to 120 mg daily. […] After two years on their weight loss treatment, their weight was 231 lbs. […]
# [2] = Blood pressure and pulse of weight loss program patients on thyroid hormone treatment
# Procedure: (§1) The first patient example is a person, 5′2″, weight 268 lbs, body mass index (BMI) 49 (nl 19-24; overweight 25-29; obesity≧30). Baseline blood pressure was 110/74, blood sugar (BS) was 153 mg/dL 10 days after their first visit. Their medical problems at baseline included obesity, type 2 diabetes mellitus (DM2), high blood pressure (HTN), fatigue, depression, and asthma. Their medications included glipizide 10 mg daily, amitriptyline 50 mg daily, metoprolol 50 mg daily, furosemide 40 mg daily, potassium chloride, lisinopril 10 mg daily, Advair Discus 500/50 twice daily (bid), and montelukast 10 mg daily. They were started on our comprehensive program. Five months after starting their weight loss treatment, they developed symptoms of hypothyroidism with constipation and fatigue. They had lost 28 lbs by this time and was having difficulty losing more weight even though they were eating less than they were before their weight loss treatment began. At the start of treatment, their FT4 was 0.9 ng/dL (nl 0.7-1.48). At the time of their low thyroid symptoms, their FT3 was 2.9 pg/mL (nl 1.71-3.71) and their FT4 was 0.91 ng/dL (nl 0.7-1.48). They were then treated with thyroid hormone (desiccated thyroid with a ratio of T4:T3 of about 4:1) at 60 mg daily for 6 days to acclimate, then increased to 120 mg daily. […] After two years on their weight loss treatment, their weight was 231 lbs. […] We tested for rT3 at this point. Their labs on the 150 mg dose of desiccated thyroid were: rT3 394 pg/mL (nl 90-350), FT3 3.94 pg/mL (nl 1.71-3.71), and FT4 1.24 ng/dL (nl 0.7-1.48). The task of bringing down their rT3 was then addressed. Over a period of a few months, their desiccated thyroid hormone was discontinued and instead the patient was given gradually increasing doses of T3 only, starting at 20 mcg daily and gradually increasing the T3 to 60 mcg bid. Five months after starting on T3 with increasing doses, their weight had dropped to 209 lbs. Their BP was 118/66 mmHg with pulse of 74 on lisinopril 10 mg daily, metoprolol 50 mg bid, and furosemide 40 mg daily. Instead of glipizide, they were taking metformin 500 mg bid. […] Their most recent labs on 60 mcg bid of T3 were FT3 3.8 pg/mL (nl 1.71-3.71), FT4 0.64 ng/dL (nl 0.7-1.48) and rT3 137 pg/mL (nl 90-350). Four months prior to this visit their BS was 125 mg/dl.
# (§2) The second patient example is a person, 5′2″, weight 150 lbs, BMI 28 (nl 18.5-24.9; overweight 25-29.9; obesity≧30), with HTN. Their blood pressure was slightly elevated at 148/85 (on lisinopril 5 mg daily). Their medical problems at baseline included history of Hashimoto's thyroiditis, borderline high TSH, elevated lipids, and HTN. Their medications were lisinopril 5 mg daily, estradiol 2 mg daily, and rofecoxib 25 mg daily for osteoarthritis of their large joints. […]
# [3] = Low thyroid symptoms / clinical status of weight loss program patients on thyroid hormone treatment
# Procedure: as §1, §2
# [4] = Patient Example 2, T3 only, 25 mcg bid
# [5] = Patient Example 1, on T3 only, with lisinopril, metoprolol, furosemide
smiles,measurement,setting,value
"N[C@@H](Cc1cc(I)c(Oc2ccc(O)c(I)c2)c(I)c1)C(=O)O [T3, (2S)-2-amino-3-[4-(4-hydroxy-3-iodo-phenoxy)-3,5-diiodo-phenyl]propanoic acid]",weight,"[1]; Patient Example 1, five months after starting T3 only, 20 mcg daily increasing to 60 mcg bid",209 lbs
same,weight,[1]; [4],125 lbs
same,BP,[2]; [5],118/66
same,pulse,[2]; [5],74
same,pulse,[2]; [4],72
same,BP,"[2]; Patient Example 2, T3 only, 25 mcg bid, on no medications",122/80
same,clinical thyroid status,"[3]; Patient Example 1, on T3 only",clinically euthyroid
same,lipids,[3]; [4],improved compared to baseline
same,low thyroid symptoms,[3]; [4],"no longer suffered from hair loss; their bowels were normal, they felt well"
